In patent publication US5602125A, “Thienodiazepine derivatives as cholecystokinin and gastrin antagonists” (Merck, Sharp & Dohme, Ltd., priority 1992, dated 1997):

How the values were obtained:
[1] = target: T1, CCK-B (Cavia porcellus, UniProt H0VZC5); assay: displacement of 125I-CCK from guinea pig brain (CCK-B); format: binding
T1 construct: guinea pig brain (CCK-B); from tissue; host or cells: guinea pig brain
Method: (§1) The CCK-A and CCK-B antagonising activity of the compounds described herein was evaluated using the assays described in published European patent application no. 0514133. The method essentially involves determining the concentration of the test compound required to displace 50% of the specific ^125 I-CCK from rat pancreas (CCK-A) or guinea pig brain (CCK-B). The data in Table 1 were obtained for the compound of Example 1.

[2] = target: T2, CCK-A (Rattus norvegicus, UniProt P30551); assay: displacement of 125I-CCK from rat pancreas (CCK-A); settings: 50% displacement of specific 125I-CCK, read-out: CCK receptor binding IC50, 125I-CCK Pancreas
T2 construct: ^125 I-CCK from rat pancreas (CCK-A); from tissue; host or cells: rat pancreas
T2 sequence (P30551 1-444): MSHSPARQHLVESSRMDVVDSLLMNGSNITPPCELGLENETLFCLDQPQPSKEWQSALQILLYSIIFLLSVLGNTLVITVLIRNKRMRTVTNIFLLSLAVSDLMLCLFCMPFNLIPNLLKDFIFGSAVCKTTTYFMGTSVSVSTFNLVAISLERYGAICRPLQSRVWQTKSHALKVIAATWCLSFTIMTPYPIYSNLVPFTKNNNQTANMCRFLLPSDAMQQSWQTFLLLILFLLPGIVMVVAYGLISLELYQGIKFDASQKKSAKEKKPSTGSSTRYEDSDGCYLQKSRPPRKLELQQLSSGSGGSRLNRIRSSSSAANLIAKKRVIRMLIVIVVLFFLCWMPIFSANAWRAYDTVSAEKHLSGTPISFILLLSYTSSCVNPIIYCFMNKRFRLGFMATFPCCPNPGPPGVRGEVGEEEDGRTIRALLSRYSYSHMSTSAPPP
Method: as §1

T1 sequence (H0VZC5 entry or part of it): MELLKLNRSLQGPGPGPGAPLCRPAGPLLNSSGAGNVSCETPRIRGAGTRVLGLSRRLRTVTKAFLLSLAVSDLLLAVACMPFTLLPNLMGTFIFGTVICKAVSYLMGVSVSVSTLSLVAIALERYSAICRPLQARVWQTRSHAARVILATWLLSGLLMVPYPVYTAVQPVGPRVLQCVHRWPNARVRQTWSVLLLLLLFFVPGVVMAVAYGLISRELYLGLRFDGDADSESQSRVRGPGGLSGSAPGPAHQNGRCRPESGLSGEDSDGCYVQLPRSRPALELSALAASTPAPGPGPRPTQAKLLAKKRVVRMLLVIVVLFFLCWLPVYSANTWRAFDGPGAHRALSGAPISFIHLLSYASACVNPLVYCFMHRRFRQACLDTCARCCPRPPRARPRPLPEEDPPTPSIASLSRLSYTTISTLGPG

With `Cc1cccc(NC(=O)NC2N=C(C3CCCCC3)c3ccsc3N(C)C2=O)c1` (racemic) [Example 1, N-[3(R,S)-5-cyclohexyl-2,3-dihydro-1-methyl-2-oxo-1H-1,4-thienodiazepine-3-yl]-N'-(3-methylphenyl) urea] the IC50 [1] was 46 nM and the IC50 [2] was 6.7 nM.
